Source: patent US7964219B2, “Pharmaceutical compositions for controlled release delivery of biologically active compounds” (QPS, LLC, priority 2004, dated 2011)

Tests used:
[1] = Stability of octreotide in injectable formulations at room temperature by HPLC (Example 12)
Procedure: Injectable formulations of octreotide were prepared by dispersing octreotide in polymer solution in an appropriate solvent. […] The mixture was thoroughly mixed until a uniform suspension or solution was obtained. Six injectable formulations were prepared as shown below.
The stability of octreotide in the above injectable formulations at room temperature was monitored by HPLC and the results are shown in the table below.

[2] = Stability of octreotide in injectable formulations at room temperature by HPLC (Example 13); assay type: physicochemical; settings: PLGA/NMP vehicle, after 24 h
Procedure: The injectable polymer solutions were prepared by dispersing octreotide phytate or acetate or citrate. […] Injectable formulations were prepared as shown below.
It appears that both salt forms of octreotide and the solvent affect the stability of octreotide. In terms of the stability of octreotide, mPEG is preferred than NMP and phytate complex form of octreotide is preferred than acetate and citrate salt of octreotide.

[3] = Release of octreotide in vivo in rats by implant retrieval (Example 14); set-up: species or system Sprague-Dawley male rats; settings: PLGA/NMP vehicle, after 24 h
Procedure: Poly(DL-lactide-co-glycolide) (PLGA) was dissolved in N-methyl-2-pyrrolidone (NMP), or methoxypolyethylene glycohol (mPEG) to give a 40% solution by weight. The injectable formulations were prepared by dispersing octreotide phytate or acetate. The mixture was thoroughly mixed until a uniform suspension or solution was obtained. These formulations of octreotide (roughly about 100 uL) were administered subcutaneously in the back of the Sprague-Dawley male rats. The release of octreotide was determined by implant retrieval at predefined time intervals (30 min for group G and 24 h for groups A through F) after ministration and analysis of the octreotide remaining in the implant.

Row | SMILES | octreotide degraded or acylated ([1]; PLGA solution in NMP, room temperature) [%] | Stability of octreotide (degraded or reacted) ([1]; after three days at room temperature) | degradation/reaction of octreotide in vitro [2] [%] | degradation/reaction of octreotide in vivo [3] [%]
1 | C[C@@H](O)[C@@H]1NC(=O)[C@H](CCCCN)NC(=O)[C@@H](Cc2c[nH]c3ccccc23)NC(=O)[C@H](Cc2ccccc2)NC(=O)[C@@H](NC(=O)[C@H](N)Cc2ccccc2)CSSC[C@@H](C(=O)N[C@H](CO)[C@@H](C)O)NC1=O [octreotide acetate] | ~100 | significant amount of the octreotide was degraded or reacted |  | 
2 | C[C@@H](O)[C@@H]1NC(=O)[C@H](CCCCN)NC(=O)[C@@H](Cc2c[nH]c3ccccc23)NC(=O)[C@H](Cc2ccccc2)NC(=O)[C@@H](NC(=O)[C@H](N)Cc2ccccc2)CSSC[C@@H](C(=O)N[C@H](CO)[C@@H](C)O)NC1=O [octreotide] |  |  | 85 | 30
